Patent US20150010928A1, “MEANS AND METHODS FOR ASSESSING AN ENDOCRINE DISEASE OR DISORDER” (priority 2012, published 2015)
Marks after values point to notes of the source that are not given here.

Test system: female rats
Experiment: Plasma metabolite profiling (GC-MS, LC-MS, SPE-LC-MS) in female rats dosed once daily over 28 days (OECD 407)
Type: in vivo, rat
Details: high dose
How it was run: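 Metabolites were measured by GC-MS (derivatised) and reversed-phase LC-MS, with steroids by online SPE-LC-MS, in plasma drawn from fasted rats on days 7, 14 and 28 of once-daily dosing (5/sex/group). Values are ratios versus sex-matched untreated controls, normalized to pool samples, with Welch-test p-values.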

Compound: C[C@]12C=CC3=C4CCC(=O)C=C4CCC3C1CC[C@@H]2O (stereo partly drawn) [Trenbolone]
- 3-Hydroxybutyrate (f7, female rats, Table 15a): 2.05 *
- DAG (C18:1,C18:2) (f7, female rats, Table 15a): 1.42 *
- Glutamate (f7, female rats, Table 15a): 1.18
- Glycine (f7, female rats, Table 15a): 1.18 *
- Phosphatidylcholine (C16:0,C20:5) (f7, female rats, Table 15a): 1.09
- TAG (C16:0,C16:1) (f7, female rats, Table 15a): 1.49 *
- TAG (C16:0,C18:1,C18:3) (f7, female rats, Table 15a): 1.48 *
- TAG (C16:0,C18:2) (f7, female rats, Table 15a): 1.83 *
- TAG (C18:1,C18:2) (f7, female rats, Table 15a): 1.72 *
- TAG (C18:2,C18:2) (f7, female rats, Table 15a): 1.61 *
- TAG (C18:3, C18:2, C18:1) (f7, female rats, Table 15a): 1.92 *
- TAG (DAG-Fragment) (f7, female rats, Table 15a): 1.8 *
- TAG No 059 (f7, female rats, Table 15a): 1.62 *
- Threonic acid (f7, female rats, Table 15a): 1.28 *
- trans-4-Hydroxyproline (f7, female rats, Table 15a): 1.31 *
- Androstenedione (f7, female rats, Table 15b): 0.3 *
- Arginine (f7, female rats, Table 15b): 0.76 *
- Campesterol (f7, female rats, Table 15b): 0.53 *
- Ceramide (d18:1,C24:0) (f7, female rats, Table 15b): 0.5 *
- Lactate (f7, female rats, Table 15b): 0.65 *
- Lysine (f7, female rats, Table 15b): 0.68 *
- Metanephrine (f7, female rats, Table 15b): 1
- Normetanephrine (f7, female rats, Table 15b): 0.83 *
- Phosphatidylcholine (C16:0,C20:5) (f7, female rats, Table 15b): 1.09
- Phosphatidylcholine (C16:0,C22:6) (f7, female rats, Table 15b): 0.89
- Phosphatidylcholine (C18:0, C20:3) (f7, female rats, Table 15b): 0.77 *
- Phosphatidylcholine (C18:0,C18:1) (f7, female rats, Table 15b): 0.84
- Progesterone (f7, female rats, Table 15b): 0.34 *
- Pyruvate (f7, female rats, Table 15b): 0.57 *
- Sphingomyelin (d18:1,C23:0) (f7, female rats, Table 15b): 0.51 *
- Sphingomyelin (d18:1,C24:0) (f7, female rats, Table 15b): 0.62 *
- Urea (f7, female rats, Table 15b): 0.74 *
- 3-Hydroxybutyrate (f14, female rats, Table 15a): 1.73 *
- DAG (C18:1,C18:2) (f14, female rats, Table 15a): 1.56
- Glutamate (f14, female rats, Table 15a): 1.13 *
- Glycine (f14, female rats, Table 15a): 1.2 *
- Phosphatidylcholine (C16:0,C20:5) (f14, female rats, Table 15a): 1.18 *
- TAG (C16:0,C16:1) (f14, female rats, Table 15a): 1.41
- TAG (C16:0,C18:1,C18:3) (f14, female rats, Table 15a): 2.26 *
- TAG (C16:0,C18:2) (f14, female rats, Table 15a): 1.9
- TAG (C18:1,C18:2) (f14, female rats, Table 15a): 1.97 *
- TAG (C18:2,C18:2) (f14, female rats, Table 15a): 2.21 *
- TAG (C18:3, C18:2, C18:1) (f14, female rats, Table 15a): 2.39 *
- TAG (DAG-Fragment) (f14, female rats, Table 15a): 2.67 *
- TAG No 059 (f14, female rats, Table 15a): 2.14 *
- Threonic acid (f14, female rats, Table 15a): 1.76 *
- trans-4-Hydroxyproline (f14, female rats, Table 15a): 1.37 *
- Androstenedione (f14, female rats, Table 15b): 0.15 *
- Arginine (f14, female rats, Table 15b): 0.69 *
- Campesterol (f14, female rats, Table 15b): 0.4 *
- Ceramide (d18:1,C24:0) (f14, female rats, Table 15b): 0.41 *
- Lactate (f14, female rats, Table 15b): 0.56 *
- Lysine (f14, female rats, Table 15b): 0.62 *
- Metanephrine (f14, female rats, Table 15b): 1.03
- Normetanephrine (f14, female rats, Table 15b): 0.83 *
- Phosphatidylcholine (C16:0,C20:5) (f14, female rats, Table 15b): 1.18
- Phosphatidylcholine (C16:0,C22:6) (f14, female rats, Table 15b): 0.87 *
- Phosphatidylcholine (C18:0, C20:3) (f14, female rats, Table 15b): 0.75 *
- Phosphatidylcholine (C18:0,C18:1) (f14, female rats, Table 15b): 0.66 *
- Progesterone (f14, female rats, Table 15b): 0.17 *
- Pyruvate (f14, female rats, Table 15b): 0.61 *
- Sphingomyelin (d18:1,C23:0) (f14, female rats, Table 15b): 0.46 *
- Sphingomyelin (d18:1,C24:0) (f14, female rats, Table 15b): 0.64 *
- Urea (f14, female rats, Table 15b): 0.72 *
- 3-Hydroxybutyrate (f28, female rats, Table 15a): 1.32 *
- DAG (C18:1,C18:2) (f28, female rats, Table 15a): 1.79 *
- Glutamate (f28, female rats, Table 15a): 1.23 *
- Glycine (f28, female rats, Table 15a): 1.37 *
- Phosphatidylcholine (C16:0,C20:5) (f28, female rats, Table 15a): 1.17 *
- TAG (C16:0,C16:1) (f28, female rats, Table 15a): 1.28 *
- TAG (C16:0,C18:1,C18:3) (f28, female rats, Table 15a): 2.48 *
- TAG (C16:0,C18:2) (f28, female rats, Table 15a): 2.08 *
- TAG (C18:1,C18:2) (f28, female rats, Table 15a): 2.25 *
- TAG (C18:2,C18:2) (f28, female rats, Table 15a): 2.7 *
- TAG (C18:3, C18:2, C18:1) (f28, female rats, Table 15a): 3.06 *
- TAG (DAG-Fragment) (f28, female rats, Table 15a): 3.12 *
- TAG No 059 (f28, female rats, Table 15a): 2.7 *
- Threonic acid (f28, female rats, Table 15a): 0.84
- trans-4-Hydroxyproline (f28, female rats, Table 15a): 1.66 *
- Androstenedione (f28, female rats, Table 15b): 0.23 *
- Arginine (f28, female rats, Table 15b): 0.78 *
- Campesterol (f28, female rats, Table 15b): 0.9
- Ceramide (d18:1,C24:0) (f28, female rats, Table 15b): 0.69 *
- Lactate (f28, female rats, Table 15b): 0.59 *
- Lysine (f28, female rats, Table 15b): 0.65 *
- Metanephrine (f28, female rats, Table 15b): 0.47 *
- Normetanephrine (f28, female rats, Table 15b): 0.75 *
- Phosphatidylcholine (C16:0,C20:5) (f28, female rats, Table 15b): 1.17
- Phosphatidylcholine (C16:0,C22:6) (f28, female rats, Table 15b): 0.93
- Phosphatidylcholine (C18:0, C20:3) (f28, female rats, Table 15b): 0.87 *
- Phosphatidylcholine (C18:0,C18:1) (f28, female rats, Table 15b): 0.81 *
- Progesterone (f28, female rats, Table 15b): 0.3 *
- Pyruvate (f28, female rats, Table 15b): 0.72 *
- Sphingomyelin (d18:1,C23:0) (f28, female rats, Table 15b): 0.64 *
- Sphingomyelin (d18:1,C24:0) (f28, female rats, Table 15b): 0.74 *
- Urea (f28, female rats, Table 15b): 0.54 *
